Results as given in US20260306640A1, “TECHNOLOGIES TARGETING CELL STATES” (Auron Therapeutics, Inc., priority 2023, published 2026).
Like-named read-outs stand apart in the source and are kept apart here.

Experiments:
KAT2B = KAT2B (Homo sapiens, UniProt Q92831); assay: KAT2B degradation, Western Blot (Jess), NCI-H1048 cells; type: cell-based; set-up: degrader, Western blot (Jess)
In short: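 DC50 came from protein loss relative to DMSO, measured by Jess capillary immunoblot of RIPA lysates with chemiluminescence read-out. Before lysis, NCI-H1048 cells in 5% FBS HITES medium were exposed to compound for 24 h at 37° C.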

KAT2A = KAT2A (Homo sapiens, UniProt Q92830); assay: Western blot of KAT2A in NCI-H1048 tumors, 168 hours post last dose; type: in vivo; set-up: degrader, Western blot; conditions: FIG. 1 (F)
Experimental: (§1) FIG. 1. Provided compounds can provide various activities including inhibiting tumor growth in vivo. (A): Provided compounds can inhibit tumor growth in vivo. Nude Balb/c mice were inoculated with NCI-H1048 cells in Matrigel. Tumors were allowed to grow up to about 200 mm^3 and mice were then randomized into two groups. Mice were dosed intraperitoneally (i.p.) once per week with vehicle or 30 mg/kg compound 22. Tumor size was measured every three to four days and mice were sacrificed once vehicle tumors reached 2000 mm^3. Error bar is SEM. Dosing started at day 17 post tumor inoculation. (B): Provided technologies can reduce KAT2A and KAT2B levels and histone acetylation levels. […] Vehicle is DMSO. […] Cell count data relative to DMSO control after 8 days of treatment with compound 22 are presented as examples to confirm inhibition. GI50=6 nM. (D): Provided technologies can inhibit tumor growth in vivo. Nude balb/c mice inoculated with H1048 tumors were dosed intraperitoneally once per week (qw i.p.) with vehicle (HbCD) or compound 22. Average tumor volumes+/−SEM from 6 mice are represented. […] See also (A). […] Certain body weights relative to starting weight are presented as examples to confirm tolerability and safety. (F): Provided technologies can reduce KAT2A and KAT2B levels and histone acetylation levels in tumor in vivo. […]

histone acetylation [1] = assay: Western blot of histone acetylation in NEPC primary patient organoid, 72 hours; type: cell-based; conditions: FIG. 3 (D)
Experimental: (§2) FIG. 3. Provided compounds can provide various activities. (A): Provided technologies can reduce KAT2A and KAT2B levels and histone acetylation levels. […] Cell viability (Cell Titer Glo) data relative to DMSO control after 7 days of treatment with compound 22 are presented as examples to confirm inhibition. GI50=5 nM. (C): Provided technologies can modulate cell states and induce differentiation. […] (D): Provided technologies can reduce KAT2A and KAT2B levels and histone acetylation levels including in neuroendocrine prostate cancer primary patient organoid. […] Concentrations are nM. […] Cell viability data relative to DMSO control after 21 days of treatment with compound 22 are presented as examples to confirm inhibition. GI50=3 nM. (F): Provided technologies can modulate cell states and induce differentiation.

epithelial GSEA = assay: Epithelial GSEA in NCI-H1048 tumors of treated mice; type: in vivo; conditions: tumors treated as compared to vehicle; FIG. 1 (G)
Experimental: as §1

histone acetylation [2] = assay: Western blot of histone acetylation in neuroendocrine prostate cancer LASCPC-01 cells, 24 hours; type: cell-based; conditions: FIG. 3 (A)
Experimental: as §2

KAT2B, sequence (Q92831 whole entry): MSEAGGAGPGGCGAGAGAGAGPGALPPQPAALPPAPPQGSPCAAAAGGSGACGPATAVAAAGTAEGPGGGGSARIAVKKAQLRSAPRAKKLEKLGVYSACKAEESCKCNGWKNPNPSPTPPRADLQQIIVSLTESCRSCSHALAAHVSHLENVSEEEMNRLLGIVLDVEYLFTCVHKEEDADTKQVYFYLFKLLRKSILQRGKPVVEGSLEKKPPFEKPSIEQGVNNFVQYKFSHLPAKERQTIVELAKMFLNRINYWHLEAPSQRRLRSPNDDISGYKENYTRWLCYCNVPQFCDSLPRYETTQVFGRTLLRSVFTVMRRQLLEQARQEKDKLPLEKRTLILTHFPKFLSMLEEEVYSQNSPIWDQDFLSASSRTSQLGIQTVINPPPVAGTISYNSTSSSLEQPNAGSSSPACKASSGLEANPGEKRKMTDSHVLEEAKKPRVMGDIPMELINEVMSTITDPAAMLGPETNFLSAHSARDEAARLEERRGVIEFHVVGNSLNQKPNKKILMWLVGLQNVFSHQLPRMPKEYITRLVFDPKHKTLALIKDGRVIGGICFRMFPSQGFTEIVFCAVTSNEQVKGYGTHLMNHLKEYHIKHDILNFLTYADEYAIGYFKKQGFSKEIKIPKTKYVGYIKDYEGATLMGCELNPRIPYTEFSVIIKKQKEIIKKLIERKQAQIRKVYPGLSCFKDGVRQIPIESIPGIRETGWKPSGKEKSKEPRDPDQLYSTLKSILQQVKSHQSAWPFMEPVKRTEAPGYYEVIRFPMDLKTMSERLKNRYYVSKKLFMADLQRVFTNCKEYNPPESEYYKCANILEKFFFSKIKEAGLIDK
KAT2A, sequence (Q92830 whole entry): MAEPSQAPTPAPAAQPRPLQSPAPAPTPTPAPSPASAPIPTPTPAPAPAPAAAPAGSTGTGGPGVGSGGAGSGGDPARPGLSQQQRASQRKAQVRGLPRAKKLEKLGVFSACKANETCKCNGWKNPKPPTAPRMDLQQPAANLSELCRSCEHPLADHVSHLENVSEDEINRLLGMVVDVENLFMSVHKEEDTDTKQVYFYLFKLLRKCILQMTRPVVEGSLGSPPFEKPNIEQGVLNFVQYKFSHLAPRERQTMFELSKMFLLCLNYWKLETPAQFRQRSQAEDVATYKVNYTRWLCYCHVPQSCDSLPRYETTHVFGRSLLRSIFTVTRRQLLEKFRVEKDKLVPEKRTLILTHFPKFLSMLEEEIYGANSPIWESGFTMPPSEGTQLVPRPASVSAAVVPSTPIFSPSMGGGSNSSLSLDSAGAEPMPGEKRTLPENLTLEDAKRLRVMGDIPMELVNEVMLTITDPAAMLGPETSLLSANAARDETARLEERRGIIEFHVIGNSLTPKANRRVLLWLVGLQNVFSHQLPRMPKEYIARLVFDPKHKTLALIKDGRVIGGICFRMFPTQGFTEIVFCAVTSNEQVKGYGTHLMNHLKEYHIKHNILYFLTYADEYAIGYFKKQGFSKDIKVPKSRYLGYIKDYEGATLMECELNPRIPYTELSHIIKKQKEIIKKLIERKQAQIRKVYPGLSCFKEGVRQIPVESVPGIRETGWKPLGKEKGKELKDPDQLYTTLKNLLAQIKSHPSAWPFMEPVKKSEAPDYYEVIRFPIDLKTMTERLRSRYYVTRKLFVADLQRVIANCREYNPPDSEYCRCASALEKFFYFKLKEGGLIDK

- EC90 (KAT2B; 24 h, NCI-H1048, KAT2B, read-out: DC90 (the source's name)): 1.44 nM
- DC50 (KAT2B; NCI-H1048, KAT2B, read-out: DC50): 0.04 nM
- KAT2B levels (KAT2B; NCI-H1048 cells, FIG. 1): potently reduce KAT2A and KAT2B levels
- DC50 (KAT2B; NCI-H1048 cells, KAT2B, 24 h, Western Blot, vs DMSO, read-out: KAT2B NCI-H1048 DC50): < 1 nM
- reduction of KAT2A in tumor (KAT2A): significant reduction
SMILES: CN1C[C@H](Nc2cnn(C)c(=O)c2Br)C[C@H](c2ccc(C(=O)N3CCC(CN4CCN(c5ccc6c(c5)CN(C5CCC(=O)NC5=O)C6=O)CC4)CC3)cc2)C1 (stereo partly drawn) [Compound 22, 3-(5-(4-((1-(4-((3R,5R)-5-((5-bromo-1-methyl-6-oxo-1,6-dihydropyridazin-4-yl)amino)-1-methylpiperidin-3-yl)benzoyl)piperidin-4-yl)methyl)piperazin-1-yl)-1-oxoisoindolin-2-yl)piperidine-2,6-dione]
- reduction of histone acetylation level (histone acetylation [1]): confirmed such reductions
- epithelial GSEA (epithelial GSEA): significant upregulation
- reduction of histone acetylation level (histone acetylation [2]): confirm such reduction
